In paper PMC10539361, “Allosteric modulation of the fish taste receptor type 1 (T1R) family by the extracellular chloride ion” (Scientific Reports, 2023):

Biological target: T1, mfT1R2a/mfT1R3 (Oryzias latipes, UniProt Q2MHK2+Q2MHK5)
T1 sequence (Q2MHK5 20-819): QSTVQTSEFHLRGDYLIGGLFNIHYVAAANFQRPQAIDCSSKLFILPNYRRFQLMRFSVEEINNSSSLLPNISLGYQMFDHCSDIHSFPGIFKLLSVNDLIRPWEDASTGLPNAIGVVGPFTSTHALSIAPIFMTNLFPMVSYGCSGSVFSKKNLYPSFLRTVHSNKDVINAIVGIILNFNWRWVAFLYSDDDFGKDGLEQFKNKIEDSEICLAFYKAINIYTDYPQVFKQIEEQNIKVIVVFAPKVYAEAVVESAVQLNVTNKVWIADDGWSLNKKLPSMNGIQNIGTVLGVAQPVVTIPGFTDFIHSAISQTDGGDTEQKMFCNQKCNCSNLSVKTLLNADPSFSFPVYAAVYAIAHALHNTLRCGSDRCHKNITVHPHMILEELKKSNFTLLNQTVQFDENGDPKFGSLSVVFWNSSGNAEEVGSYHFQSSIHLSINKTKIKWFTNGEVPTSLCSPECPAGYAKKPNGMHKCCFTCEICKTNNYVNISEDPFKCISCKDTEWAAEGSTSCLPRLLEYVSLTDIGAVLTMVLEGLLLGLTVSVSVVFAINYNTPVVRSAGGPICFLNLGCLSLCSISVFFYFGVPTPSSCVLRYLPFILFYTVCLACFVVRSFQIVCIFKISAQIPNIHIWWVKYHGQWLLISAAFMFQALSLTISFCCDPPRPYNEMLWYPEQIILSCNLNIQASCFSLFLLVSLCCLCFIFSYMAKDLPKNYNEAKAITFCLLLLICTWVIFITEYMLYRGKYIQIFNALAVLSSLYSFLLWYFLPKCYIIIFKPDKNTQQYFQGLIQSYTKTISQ
T1 sequence (Q2MHK2 20-853): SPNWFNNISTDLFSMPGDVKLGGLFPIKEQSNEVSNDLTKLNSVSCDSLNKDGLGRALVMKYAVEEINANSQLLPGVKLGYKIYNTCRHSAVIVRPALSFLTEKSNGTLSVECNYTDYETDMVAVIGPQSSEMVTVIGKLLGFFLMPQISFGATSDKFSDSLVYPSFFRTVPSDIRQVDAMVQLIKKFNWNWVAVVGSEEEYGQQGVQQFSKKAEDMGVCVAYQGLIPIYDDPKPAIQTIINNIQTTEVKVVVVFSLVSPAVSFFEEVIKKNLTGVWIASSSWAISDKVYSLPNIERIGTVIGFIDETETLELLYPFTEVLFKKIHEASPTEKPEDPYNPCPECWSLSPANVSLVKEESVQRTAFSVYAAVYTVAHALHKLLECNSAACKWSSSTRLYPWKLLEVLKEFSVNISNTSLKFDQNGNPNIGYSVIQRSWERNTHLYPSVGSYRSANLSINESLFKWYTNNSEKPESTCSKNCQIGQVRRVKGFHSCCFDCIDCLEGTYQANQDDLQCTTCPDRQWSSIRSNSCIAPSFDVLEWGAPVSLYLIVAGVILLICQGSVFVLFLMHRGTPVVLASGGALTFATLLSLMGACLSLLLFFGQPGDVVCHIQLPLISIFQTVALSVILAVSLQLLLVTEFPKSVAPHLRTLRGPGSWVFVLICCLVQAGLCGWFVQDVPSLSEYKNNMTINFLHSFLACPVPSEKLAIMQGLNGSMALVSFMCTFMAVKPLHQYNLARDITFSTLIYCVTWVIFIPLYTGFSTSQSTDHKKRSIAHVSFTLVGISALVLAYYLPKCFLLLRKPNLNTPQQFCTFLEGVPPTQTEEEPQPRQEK
Assay: Effect of anions, cations and osmotic pressure on cellular responses, cells in 10 mM Cl- buffer, mfT1R2a/mfT1R3
Format: cell-based, medaka fish
Conditions: for response to fixed concentration of L-Gln on coapplication: coapplied with 200 µM L-Gln, final [Cl-]o up to 60 mM
Protocol: Cells were seeded in 96-well plates coated with ε-poly-L-lysine at approximately 70,000 cells per well. […] Fluorescence changes were monitored at 2 s intervals, as described above. […] Three independent experiments were conducted for each receptor, and representative results are shown as the mean ± SEM (n = 3 replicates). Statistical tests were conducted using KyPlot version 6.0 (KyensLab Inc., Tokyo, Japan). Statistical significance was set at p < 0.05.

Row | SMILES | response to fixed concentration of L-Gln on coapplication (cells in 10 mM Cl- buffer) | additional anion concentration needed to significantly increase the response intensity to L-Gln (added to 10 mM Cl- buffer with 200 µM L-Gln) [mM] | cellular response to the salt alone (without agonist, cells in 10 mM Cl- buffer)
1 | O=C([O-])[C@H](O)[C@@H](O)[C@H](O)[C@H](O)CO.[Na+] [Na-gluconate, sodium gluconate] | did not enhance | – | –
2 | [Cl-].[Na+] [NaCl] | enhanced | 30 | did not elicit
